Source: paper PMC8869984, “Multifunctional Silver(I) Complexes with Metronidazole Drug Reveal Antimicrobial Properties and Antitumor Activity against Human Hepatoma and Colorectal Adenocarcinoma Cells” (Cancers, 2022)

Legend:
Balb/c 3T3 cells [1] = assay: TPC assay (total protein content), 72 h exposure; assay type: cell-based, murine
Description: (§1) The human hepatoma (HepG2) and colorectal adenocarcinoma (Caco-2) cells were purchased from the American Type Culture Collection: ATCC HB-8065 and ATCC HTB-37, respectively. These cells were cultured in Minimum Essential Medium Eagle (MEME) (ATCC). The murine fibroblasts cell line (Balb/c 3T3 clone A31) (gift from the Department of Swine Diseases of the National Veterinary Research Institute in Pulawy) was cultured in Dulbecco’s Modified Eagle Medium (DMEM) (ATCC). The media were supplemented with 10% BCS (Balb/c 3T3), 10% FBS (HepG2), 20% FBS (Caco-2), 1% L-glutamine, 1% antibiotic solution. The cells were maintained in 75 cm^2 cell culture flasks (NUNC) in a humidified incubator at 37 °C in an atmosphere of 5% CO2. The medium was refreshed every two or three days, and the cells were trypsinized by 0.25% trypsin–0.02% EDTA after reaching 70–80% confluence. Single cell suspensions were prepared and adjusted to a density of 2 × 10^5 cell/mL^−1 (HepG2), 1 × 10^5 cell/mL^−1 (Caco-2) and 5 × 10^4 cell/mL^−1 (Balb/c 3T3). The cell suspension was transferred to 96-well plates (100 µL/well) and incubated for 24 h before the exposure to the studied compounds. Stock solutions of ligands and metal complexes were prepared in sterile water and diluted with culture medium to obtain a concentration range from 0.1 to 10 µM. The final concentration of sterile water was 0.1% in the medium. […] As a negative control, cultured cells were grown in the absence of studied compounds. Each concentration was tested in six replicates in three independent experiments. Cytotoxicity was assessed after 72 h of exposure of the cells to compounds. The medium was not changed during the incubation time.
This assay is based upon staining the total cellular protein (proliferation). […] The absorbance was measured at 595 nm in a microplate reader Synergy HTX multi-mode reader (BioTek® Instruments Inc., Winooski, VT, USA) using a blank as a reference. Cytotoxicity was expressed as a percentage of the negative control. […]

Balb/c 3T3 cells [2] = assay: LDH leakage assay (membrane integrity), 72 h exposure; assay type: cell-based, murine
Description: as §1
The integrity of the plasma membrane was assessed through the test of lactate dehydrogenase (LDH) release, which was monitored using the commercially available Cytotoxicity Detection Kit (LDH) (Roche Diagnostics, Warsaw, Poland). […] The absorbance was measured at 492 nm in a microplate reader Synergy HTX multi-mode reader (BioTek® Instruments Inc., Winooski, VT, USA) using a blank as a reference. […]

Balb/c 3T3 cells [3] = assay: NRU assay (lysosomal activity), 72 h exposure; assay type: cell-based, murine
Description: as §1
This method is based on staining living cells with neutral red, which readily diffuses through the plasma membrane and accumulates in lysosomes. […] After 10 min of shaking, the absorbance of the dissolved NR was measured using a Synergy HTX multi-mode reader (BioTek® Instruments Inc., Winooski, VT, USA) at 540 nm using a blank as a reference. Cytotoxicity was expressed as a percentage of the negative control. […]

Caco-2 cells = assay: NRU assay (lysosomal activity), 72 h exposure; assay type: cell-based, human; details: Caco-2, NRU
S. aureus biofilm = assay: qualitative antibiofilm activity, confocal laser scanning microscope (CLSM); details: 500 mg/L, 24 h exposure
solubility in water = assay type: physicochemical; details: qualitative statement
[4] = tested on: reference aerobic and anaerobic microorganisms (ATCC); assay: micro-dilution broth method, whole panel of reference strains; assay type: cell-based; details: against the majority of tested bacterial strains
Balb/c 3T3 cells [5] = assay: cytotoxicity, MTT, NRU, TPC and LDH assays taken together, 72 h; assay type: cell-based, murine; details: non-cancer Balb/c 3T3 cells, range over MTT, TPC, LDH
Description: The human hepatoma (HepG2) and colorectal adenocarcinoma (Caco-2) cells were purchased from the American Type Culture Collection: ATCC HB-8065 and ATCC HTB-37, respectively. These cells were cultured in Minimum Essential Medium Eagle (MEME) (ATCC). The murine fibroblasts cell line (Balb/c 3T3 clone A31) (gift from the Department of Swine Diseases of the National Veterinary Research Institute in Pulawy) was cultured in Dulbecco’s Modified Eagle Medium (DMEM) (ATCC). The media were supplemented with 10% BCS (Balb/c 3T3), 10% FBS (HepG2), 20% FBS (Caco-2), 1% L-glutamine, 1% antibiotic solution. […] Cytotoxicity was assessed after 72 h of exposure of the cells to compounds. […]
The metabolic activity of living cells was assessed by the measurement of the activity of dehydrogenases. […] The plate was shaken for 15 min at room temperature and transferred to a microplate reader Synergy HTX multi-mode reader (BioTek® Instruments Inc., Winooski, VT, USA) to measure the absorbance at 570 nm, using a blank as a reference. Cytotoxicity was expressed as a percentage of the negative control.
This method is based on staining living cells with neutral red, which readily diffuses through the plasma membrane and accumulates in lysosomes. […] Cytotoxicity was expressed as a percentage of the negative control. […]

Q: With `Cc1ncc([N+](=O)[O-])n1CCO` [MTZ, 2-Methyl-5-nitroimidazole-1-ethanol] as the compound, how does the IC50 (Balb/c 3T3 cells [1]; Mus musculus, BALB/c3T3, Balb/c 3T3, TPC, mean ± SD, n = 3) read?
A: The IC50 was greater than 10 µM.

Q: And the IC50 (Balb/c 3T3 cells [2]; Mus musculus, BALB/c3T3, Balb/c 3T3, LDH, mean ± SD, n = 3)?
A: The IC50 was greater than 10 µM.

Q: What about the IC50 (Balb/c 3T3 cells [3]; Mus musculus, BALB/c3T3, Balb/c 3T3, NRU, mean ± SD, n = 3) of the same compound?
A: Its IC50 is greater than 10 µM.

Q: What about the IC50 (Caco-2 cells; Homo sapiens, mean ± SD, n = 3) of the same compound?
A: The IC50 was greater than 10 µM.

Q: For `Cc1ncc([N+](=O)[O-])n1CCO.Cc1ncc([N+](=O)[O-])n1CCO.Cc1ncc([N+](=O)[O-])n1CCO.Cc1ncc([N+](=O)[O-])n1CCO.O=S(=O)([O-])[O-].[Ag+].[Ag+]` [[Ag(MTZ)2]2SO4], which “lowest concentration with significant (p ≤ 0.05) effect” value (Balb/c 3T3 cells [1]; Balb/c 3T3, TPC, Figure 6) is on record?
A: Its value is 5.0 µM.

Q: What about the “effect on biofilm (CLSM, qualitative)” value (S. aureus biofilm) of the same compound?
A: Its value is “significantly reduced biofilm density”.

Q: And the “lowest concentration with significant (p ≤ 0.05) effect” value (Balb/c 3T3 cells [2]; Balb/c 3T3, LDH, Figure 6)?
A: Its value is 5.0 µM.

Q: What about the solubility in water (solubility in water) of the same compound?
A: The solubility in water was “more soluble in water in comparison to Ag2SO4”.

Q: What about the “lowest concentration with significant (p ≤ 0.05) effect” value (Balb/c 3T3 cells [3]; Balb/c 3T3, NRU, Figure 6) of the same compound?
A: Its value is 5.0 µM.

Q: What about the “minimal inhibition concentration (MIC), range” value [4] of the same compound?
A: The value was 0.24 to 250 µg/mL.

Q: And the “lowest concentration with inhibition of lysosomal activity” value (Caco-2 cells; Figure 6)?
A: Its value is 1.0 µM.

Q: Which IC50 (Balb/c 3T3 cells [5]) does the source give for `O=S(=O)([O-])[O-].[Ag+].[Ag+]` [Ag2SO4, silver sulfate] here?
A: Its IC50 is 1.92 to 2.57 µM.
